From patent US10800757B2, “Inhibitors of TRPC6” (Boehringer Ingelheim International GmbH, priority 2017, dated 2020)

Target: TRPC6 (Homo sapiens (Human), UniProt Q9Y210)
Assay: High throughput screening assay: fluorescent calcium (Fluo4/AM) assay of TRPC6 channel activation by GSK1702934A in HEK293/TREx cells
Type: cell-based
Conditions: HEK293/TREx cells stably transfected with TRPC6; agonist GSK1702934A; 7 concentrations 20 μM to 0.027 μM, triplicate
Description: This screening assay measures TRPC6 (transient receptor potential cation channel, subfamily C, member 6) ion channel activation via addition either of the commercially available DAG ligand analogue OAG (1-oleoyl-2-acetyl-sn-glycerol) or of the TRPC6 agonist 1-[1-(4,5,6,7,8-pentahydrocyclohepta[2,1-d]thiophen-2-ylcarbonyl)-4-piperidyl]-3-hydrobenzimidazol-2-one (GSK1702934A). The assay utilizes a FLIPR fluorescent calcium sensor 4-(6-Acetoxymethoxy-2,7-difluoro-3-oxo-9-xanthenyl)-4′-methyl-2,2′-(ethylenedioxy)dianiline-N,N,N′,N′-tetraacetic acid tetrakis(acetoxymethyl) ester (Fluo4/AM) […]. Changes (increases) in intracellular membrane calcium concentration potential as measured by the fluorescent signal increase during membrane depolarization provide a measurement of channel activity.
The commercially available HEK293/TREx line (Invitrogen) was stably transfected with a TRPC6 construct and screened by conventional calcium imaging to find clones with TRPC6 expression following stimulation with 1 μg/ml tetracycline. These cells were maintained in the growth medium recommended by the manufacturer supplemented with 100 μg/ml hygromycin to promote retention of the TRPC6 construct. After growing to near confluency, cells were plated at a density of ^˜35,000 cells/well in 384 well CellBind plates (Corning) in the presence of 1 μg/ml tetracycline, and allowed to grow for 20-30 hrs. A nearly confluent monolayer resulted. Growth media was removed from the wells and cells were then loaded with […] Fluo4/AM diluted in Ringer's Solution (6.5 g NaCl, 0.42 g KCl, 0.25 g CaCl2) and 0.2 g of sodium bicarbonate; pH 7.4) supplemented with 1% Pluronic F-127 to a final concentration of 0.5 μM and incubated for 60 min, at room temperature. Dye solution was then removed from the cells by inverting plates with a sharp flick, and replaced with 25 μl Ringer's. Following ^˜0.5 hour for recovery from loading, cells were assayed using the Hamamatsu FDSS 6000 system, which permitted illumination at 485 nm. Frames were acquired at a rate of 0.2 Hz. During the assay, the plates were continuously vortexed, with pipette mixing of wells following addition of each reagent. For the screening assay, 26 μl of a diluted compound stock (at 50 μM) was added to each well for 2 minutes following the collection of a short (4 frame) baseline. 13 μl of agonist solution consisting of 125 nM GSK1702934A diluted in high-Ca2+Ringer solution (containing 90 mm Ca2+) was then added to each well, achieving a final concentration of 20 mm Ca2+ and 10 μM test compound. Data was collected for ^˜3 minutes following addition of high Ca2+Ringer. The fluorescent ratio for each well was divided by the initial fluorescent intensity for that well and the overall response was determined by averaging the fluorescent ratio of the last 4 frames acquired during the experiment excepting the final frame. Negative and Positive controls were included on each plate. Negative controls wells consisted of HEK293/TREx TRPC6 cells exposed to assay buffer and agonist solution, but no test compound. Positive control consisted of wells consisted of HEK293/TREx TRPC6 cells exposed to 25 μM 3-[(2-chlorophenoxy)methyl]phenyl piperidyl ketone (Chembridge) diluted in Ringer's solution and agonist solution. These controls defined zero percent and 100 percent block respectively, and intensity of each well was normalized to these values.
Compounds were tested in triplicate at all concentrations. Standard software was used to fit IC50 curves.

Sequence of TRPC6 (Q9Y210 whole entry, species assumed): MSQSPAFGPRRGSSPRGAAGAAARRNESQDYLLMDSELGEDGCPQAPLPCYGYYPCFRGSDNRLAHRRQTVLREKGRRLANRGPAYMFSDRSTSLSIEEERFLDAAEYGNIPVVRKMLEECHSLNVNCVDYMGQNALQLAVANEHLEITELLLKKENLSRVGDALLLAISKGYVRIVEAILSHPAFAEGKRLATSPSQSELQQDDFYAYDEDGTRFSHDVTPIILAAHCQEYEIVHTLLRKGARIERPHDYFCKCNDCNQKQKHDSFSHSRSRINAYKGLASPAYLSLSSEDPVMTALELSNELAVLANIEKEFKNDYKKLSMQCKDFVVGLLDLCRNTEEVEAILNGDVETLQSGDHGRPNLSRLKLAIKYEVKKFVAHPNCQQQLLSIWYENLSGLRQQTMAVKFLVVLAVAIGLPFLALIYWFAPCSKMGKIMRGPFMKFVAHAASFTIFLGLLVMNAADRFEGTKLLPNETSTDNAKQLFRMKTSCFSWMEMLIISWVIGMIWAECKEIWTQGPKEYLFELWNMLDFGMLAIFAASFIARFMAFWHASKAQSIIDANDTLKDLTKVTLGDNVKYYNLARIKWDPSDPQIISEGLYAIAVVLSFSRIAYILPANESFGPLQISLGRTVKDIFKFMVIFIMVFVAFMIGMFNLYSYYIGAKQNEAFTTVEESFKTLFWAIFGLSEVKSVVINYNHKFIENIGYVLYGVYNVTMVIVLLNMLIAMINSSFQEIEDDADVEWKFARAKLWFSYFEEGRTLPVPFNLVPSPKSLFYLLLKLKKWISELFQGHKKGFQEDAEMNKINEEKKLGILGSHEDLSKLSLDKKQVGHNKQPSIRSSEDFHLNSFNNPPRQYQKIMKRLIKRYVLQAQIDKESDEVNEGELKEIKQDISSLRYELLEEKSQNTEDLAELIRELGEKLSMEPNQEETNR

Row | IC50 [nM] | Compound
1 | 67 | COc1cc(C(=O)N2CCC(c3cnc(N)cc3OC)CC2)ncc1Oc1ccc(C(F)(F)F)cc1 [Compound 24, (6-Amino-4-methoxy-3′,4′,5′,6′-tetrahydro-2′H-[3,4′]bipyridinyl-1′-yl)-[4-methoxy-5-(4-trifluoromethyl-phenoxy)-pyridin-2-yl]-methanone]
2 | 70 | COc1cc(C(=O)N2CCC(c3ccc(N)nn3)CC2)ncc1OCC1CCC1 [Compound 25, [4-(6-Amino-pyridazin-3-yl)-piperidin-1-yl]-(5-cyclobutylmethoxy-4-methoxy-pyridin-2-yl)-methanone]
3 | 71 | COc1cc(C(=O)N2CCC(c3cnc(N)cc3OC)CC2)ncc1OCC1(C)CC1 [Compound 26, (6-Amino-4-methoxy-3′,4′,5′,6′-tetrahydro-2′H-[3,4′]bipyridinyl-1′-yl)-[4-methoxy-5-(1-methyl-cyclopropylmethoxy)-pyridin-2-yl]-methanone]
4 | 75 | COC[C@H]1CN(c2cnc(N)cc2OC)CCN1C(=O)c1cc(OC)c(Oc2ccccc2)cn1 [Compound 27, [(R)-4-(6-Amino-4-methoxy-pyridin-3-yl)-2-methoxymethyl-piperazin-1-yl]-(4-methoxy-5-phenoxy-pyridin-2-yl)-methanone]
5 | 100 | COc1ccc(Oc2cnc(C(=O)N3CCC(c4cnc(N)cc4OC)CC3)cc2OC)cc1 [Compound 28, (6-Amino-4-methoxy-3′,4′,5′,6′-tetrahydro-2′H-[3,4′]bipyridinyl-1′-yl)-[4-methoxy-5-(4-methoxy-phenoxy)-pyridin-2-yl]-methanone]
6 | 110 | COc1cc(C(=O)N2CCC(c3nnc(N)cc3C)CC2)ncc1Oc1ccc(F)cc1 [Compound 29, 6-{-[5-(4-Fluorophenoxy)-4-methoxypyridine-2-carbonyl]piperidin-4-yl}-5-methylpyridazin-3-amine trifluoroacetic acid]
7 | 110 | COc1cc(C(=O)N2CCC(c3cnc(N)cc3OC)CC2)ncc1OC1CCCCC1 [Compound 30, (6-Amino-4-methoxy-3′,4′,5′,6′-tetrahydro-2′H-[3,4′]bipyridinyl-1′-yl)-(5-cyclohexyloxy-4-methoxy-pyridin-2-yl)-methanone]
8 | 120 | COc1cc(C(=O)N2CCC(c3nnc(N)cc3C)CC2)ncc1Oc1ccccc1 [Compound 31, 6-[1-(4-Methoxy-5-phenoxypyridine-2-carbonyl)piperidin-4-yl]-5-methylpyridazin-3-amine trifluoroacetic acid]
9 | 130 | COc1cc(C(=O)N2CCC(c3cnc(N)cc3OC)CC2)ncc1OCc1ccc(F)cc1 [Compound 32, (6-Amino-4-methoxy-3′,4′,5′,6′-tetrahydro-2′H-[3,4′]bipyridinyl-1′-yl)-[5-(4-fluoro-benzyloxy)-4-methoxy-pyridin-2-yl]-methanone]
10 | 82 | COc1cc(C(=O)N2CCC(c3ccc(N)nn3)CC2)ncc1Oc1ccc(C(F)(F)F)cc1 [Compound 33, [4-(6-Amino-pyridazin-3-yl)-piperidin-1-yl]-[4-methoxy-5-(4-trifluoromethyl-phenoxy)-pyridin-2-yl]-methanone]
11 | 85 | COc1cc(C(=O)N2CCC(c3ccc(N)nn3)CC2)ncc1Oc1ccc(Cl)cc1 [Compound 34, [4-(6-Amino-pyridazin-3-yl)-piperidin-1-yl]-[5-(4-chloro-phenoxy)-4-methoxy-pyridin-2-yl]-methanone]
12 | 94 | COc1cc(C(=O)N2CCC(c3cnc(N)cc3OC)CC2)ncc1OC1CCCC1 [Compound 35, (6-Amino-4-methoxy-3′,4′,5′,6′-tetrahydro-2′H-[3,4′]bipyridinyl-1′-yl)-(5-cyclopentyloxy-4-methoxy-pyridin-2-yl)-methanone]
13 | 160 | COc1cc(C(=O)N2CCC(c3cnc(N)cc3OC)CC2)ncc1OCC1CC1 [Compound 37, 5-{1-[5-(Cyclopropylmethoxy)-4-methoxypyridine-2-carbonyl]piperidin-4-yl}-4-methoxypyridin-2-amine]
14 | 170 | COc1cc(C(=O)N2CCC(c3cnc(N)cc3OC)CC2)ncc1OCC(C)C [Compound 39, 4-Methoxy-5-{1-[4-methoxy-5-(2-methylpropoxy)pyridine-2-carbonyl]piperidin-4-yl}-pyridin-2-amine trifluoroacetic acid]
15 | 170 | COc1cc(C(=O)N2CCC(c3ccc(N)nn3)CC2)ncc1Oc1ccc(OC2CC2)cc1 [Compound 40, [4-(6-Amino-pyridazin-3-yl)-piperidin-1-yl]-[5-(4-cyclopropoxy-phenoxy)-4-methoxy-pyridin-2-yl]-methanone]
16 | 180 | COc1cc(C(=O)N2CCC(c3ccc(N)nn3)CC2)ncc1OCc1ccc(F)cc1 [Compound 41, [4-(6-Amino-pyridazin-3-yl)-piperidin-1-yl]-[5-(4-fluoro-benzyloxy)-4-methoxy-pyridin-2-yl]-methanone]
17 | 140 | COc1cc(C(=O)N2CCN(c3cnc(N)cc3OC)C[C@@H]2CO)ncc1Oc1ccc(F)cc1 [Compound 42, [(R)-4-(6-Amino-4-methoxy-pyridin-3-yl)-2-hydroxymethyl-piperazin-1-yl]-[5-(4-fluoro-phenoxy)-4-methoxy-pyridin-2-yl]-methanone]
18 | 140 | COc1cc(C(=O)N2CCC(c3cnc(N)cc3OC)CC2)ncc1OCc1ccccc1 [Compound 43, (6-Amino-4-methoxy-3′,4′,5′,6′-tetrahydro-2′H-[3,4′]bipyridinyl-1′-yl)-(5-benzyloxy-4-methoxy-pyridin-2-yl)-methanone]
19 | 140 | COc1ccc(Oc2cnc(C(=O)N3CCC(c4ccc(N)nn4)CC3)cc2OC)cc1 [Compound 44, [4-(6-Amino-pyridazin-3-yl)-piperidin-1-yl]-[4-methoxy-5-(4-methoxy-phenoxy)-pyridin-2-yl]-methanone]
20 | 150 | COc1cc(C(=O)N2CCC(c3cnc(N)cc3OC)CC2)ncc1OCC1CC(F)(F)C1 [Compound 45, (6-Amino-4-methoxy-3′,4′,5′,6′-tetrahydro-2′H-[3,4′]bipyridinyl-1′-yl)-[5-(3,3-difluoro-cyclobutylmethoxy)-4-methoxy-pyridin-2-yl]-methanone]
21 | 160 | CCCOc1cnc(C(=O)N2CCC(c3cnc(N)cc3OC)CC2)cc1OC [Compound 46, (6-Amino-4-methoxy-3′,4′,5′,6′-tetrahydro-2′H-[3,4′]bipyridinyl-1′-yl)-(4-methoxy-5-propoxy-pyridin-2-yl)-methanone]
22 | 220 | COc1cc(C(=O)N2CCC(c3nnc(N)cc3OC)CC2)ncc1Oc1ccccc1 [Compound 47, 5-Methoxy-6-[1-(4-methoxy-5-phenoxypyridine-2-carbonyl)piperidin-4-yl]pyridazin-3-amine]
23 | 250 | COc1cc(C(=O)N2CCC(c3cnc(N)cc3OC)CC2)ncc1OCCC1CC1 [Compound 48, (6-Amino-4-methoxy-3′,4′,5′,6′-tetrahydro-2′H-[3,4′]bipyridinyl-1′-yl)-[5-(2-cyclopropyl-ethoxy)-4-methoxy-pyridin-2-yl]-methanone]
24 | 250 | COc1cc(C(=O)N2CCC(c3nnc(N)cc3OC)CC2)ncc1Oc1ccc(F)cc1 [Compound 49, [4-(6-Amino-4-methoxy-pyridazin-3-yl)-piperidin-1-yl]-[5-(4-fluoro-phenoxy)-4-methoxy-pyridin-2-yl]-methanone]

Row | Compound | IC50 [nM]
25 | COc1cc(C(=O)N2CCC(c3ccc(N)nn3)CC2)ncc1OCC(C)C [Compound 36, [4-(6-Amino-pyridazin-3-yl)-piperidin-1-yl]-(5-isobutoxy-4-methoxy-pyridin-2-yl)-methanone] | 97
26 | COc1cc(C(=O)N2C3CCC2CN(c2cnc(N)cc2OC)C3)ncc1Oc1ccc(F)cc1 [Compound 38, [3-(6-Amino-4-methoxy-pyridin-3-yl)-3,8-diaza-bicyclo[3.2.1]oct-8-yl]-[5-(4-fluoro-phenoxy)-4-methoxy-pyridin-2-yl]-methanone] | 170
